# Test results reported in patent US20240090503A1, “FUNGICIDAL OXADIAZOLES AND THEIR MIXTURES” (FMC CORPORATION, priority 2020, published 2024).
# Where two headings read alike, the source gives them in different places.
# Experiments:
# Type in all cases: in vivo
# [1] = system: Phakopsora pachyrhizi (the causal agent of Asian soybean rust); test: Test E: compounds alone and mixtures sprayed on soybean seedlings, Asian soybean rust, observed and Colby-expected disease control; set-up: key to Test E Obsd: 100 = 100% disease control, 0 = no disease control; settings: for pest or weed control at 161.74 ppm: 161.740 ppm
# Description: The general protocol for preparing test compositions for TEST E was as follows: Compound 316, Compound 376, Compound 225, Compound 229, Compound 257, Compound 394, Compound 506, Compound 507, Compound 508, Compound 509, Compound 511, Compound 512, methyl N-[[5-[1-[2,6-difluoro-4-(1-methylethyl)phenyl]-1H-pyrazol-3-yl]-2-methylphenyl]methyl]carbamate (b54.11a), methyl N-[[5-[l-(4-cyclopropyl-2,6-difluorophenyl)-1H-pyrazol-3-yl]-2-methylphenyl]methyl]carbamate (b54.11d), ethyl 1-[[4-[[(1Z)-2-ethoxy-3,3,3-trifluoro-1-propen-1-yl]oxy]phenyl]methyl]-1H-pyrazole-4-carboxylate (b54.12a), ethyl 1-[[4-[[2-(trifluoromethyl)-1,3-dioxolan-2-yl]methoxy]phenyl]methyl]-1H-pyrazole-4-carboxylate (b54.13a), azoxystrobin, benzovindiflupyr, bixafen, chlorothalonil, cyproconazole, epoxiconazole, fenpropidin, fenpropimorph, fluindapyr, flutriafol, fluxapyroxad, inpyrfluxam, metominostrobin, picoxystrobin, prothioconazole, pydiflumetofen, pyraclostrobin, tebuconazole and trifloxystrobin were obtained as unformulated, technical-grade materials. Copper hydroxide and mancozeb was obtained as a formulated product marketed under the trademarks KOCIDE 3000 and MANZATE, respectively. Unformulated materials were first dissolved in acetone and then suspended at the desired concentration (in ppm) in acetone and purified water (50/50 mixture by volume) containing 250 ppm of the surfactant Trem® 014 (polyhydric alcohol esters). Formulated materials were dispersed in sufficient water to give the desired concentration, and neither organic solvent nor surfactant was added to the suspension. The resulting test mixtures were then used in TEST E. The tests were run on four individual plants and the results reported as the mean average of the four plants.
# The presence of a synergistic effect between two active ingredients can be established with the aid of the Colby equation (see Colby, S. R. “Calculating Synergistic and Antagonistic Responses of Herbicide Combinations”, Weeds, (1967), 15, 20-22):
# Using the method of Colby, the presence of a synergistic interaction between two active ingredients is established by first calculating the predicted activity, p, of the mixture based on activities of the two components applied alone. If p is lower than the experimentally established effect, synergism has occurred. In the equation above, A is the fungicidal activity in percentage control of one component applied alone at rate x. The B term is the fungicidal activity in percentage control of the second component applied at rate y. The equation estimates p, the expected fungicidal activity of the mixture of A at rate x with B at rate y if their effects are strictly additive and no interaction has occurred.
# The test mixture was sprayed to the point of run-off on soybean seedlings. The following day the seedlings were inoculated with a spore suspension of Phakopsora pachyrhizi (the causal agent of Asian soybean rust) and incubated in a saturated atmosphere at 22° C. for 24 h and then moved to a growth chamber at 22° C. for 8 days, after which time visual disease ratings were made.
# Results for Test E are given below in Tables A-1 through K-2. Each table corresponds to a set of evaluations performed together at the same time. In each table, a rating of 100 indicates 100% disease control and a rating of 0 indicates no disease control (relative to the controls). Columns labeled “Obsd” indicate the average of results observed from test run on four individual plants. Columns labeled “Exp” indicate the expected value for each treatment mixture using the Colby equation, as described above.
# [2] = system: Puccinia recondita f. sp. tritici (the causal agent of wheat leaf rust); test: Test C: preventive spray on wheat seedlings, wheat leaf rust, visual disease rating; settings: Puccinia recondita, 168 h, wheat seedlings
# Procedure, shortened: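 Wheat seedlings sprayed to run-off with compound in acetone/water (50/50) with 250 ppm PEG400, then inoculated with spores the following day. After 24 h saturated humidity at 20° C. and 6 days in growth chamber at 20° C., disease rated visually as % control relative to untreated controls.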
# [3] = system: Phakopsora pachyrhizi (the causal agent of Asian soybean rust); test: Test A: preventive spray on soybean seedlings, Asian soybean rust, visual disease rating; settings: Phakopsora pachyrhizi, 216 h, soybean seedlings, 100 = 100% disease control, 0 = no control
# Procedure, shortened: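 Compound in acetone/water (50/50) with 250 ppm PEG400 sprayed to run-off on soybean seedlings; inoculated next day with Phakopsora pachyrhizi spores. Held 24 h at 22° C in saturated atmosphere, then 8 days in a 22° C growth chamber before visual rating as % disease control relative to controls.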
# [4] = system: Zymoseptoria tritici (the causal agent of wheat leaf blotch); test: Test B: preventive spray on wheat seedlings, wheat leaf blotch, visual disease rating; settings: Zymoseptoria tritici, 456 h; test suspension 250 ppm; wheat seedlings
# Procedure, shortened: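 This is a preventive test: spray application preceded Zymoseptoria tritici spore inoculation by one day. Test suspensions were in acetone/water with 250 ppm PEG400 surfactant, at the listed ppm rate. After 48 h saturated humidity at 24° C and 17 days at 20° C, visual ratings scored control from 0 to 100%.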
# [5] = Phakopsora pachyrhizi, Compound 508 alone, read-out: Test E Obsd
# [6] = Phakopsora pachyrhizi, applied alone, read-out: Test E Obsd
# [7] = Table B-1, component (b) alone: bixafen 11.327, fluxapyroxad 2.757, fluindapyr 8.820 ppm
# [8] = Table B-1, component (b) alone: bixafen 19.525, fluxapyroxad 4.748, fluindapyr 15.230 ppm
# [9] = Table B-2, component (b) alone: bixafen 11.327, fluxapyroxad 2.757, fluindapyr 8.820 ppm
# [10] = Table B-2, component (b) alone: bixafen 19.525, fluxapyroxad 4.748, fluindapyr 15.230 ppm
# [11] = Phakopsora pachyrhizi, fenpropidin alone, read-out: Test E Obsd
molecule,measurement,setting,value
"Cn1cc(C(=O)Nc2cccc3c2[C@@H]2CC[C@H]3C2=C(Cl)Cl)c(C(F)F)n1 (racemic) [benzovindiflupyr, reference compound]",Test E Obsd (disease control rating),"[1]; Table F-1, component (b) alone: benzovindiflupyr 0.606, prothioconazole 10.165, chlorothalonil 138.129 ppm",67%
same,Test E Obsd (disease control rating),"[1]; Table F-1, component (b) alone: benzovindiflupyr 0.980, prothioconazole 16.339, chlorothalonil 222.081 ppm",67%
same,Test E Obsd (disease control rating),"[1]; Table F-2, component (b) alone: benzovindiflupyr 0.606, prothioconazole 10.165, chlorothalonil 138.129 ppm",67%
same,Test E Obsd (disease control rating),"[1]; Table F-2, component (b) alone: benzovindiflupyr 0.980, prothioconazole 16.339, chlorothalonil 222.081 ppm",67%
same,Test E Obsd,"[1]; applied alone, 0.606 ppm",51
same,Test E Obsd,"[1]; applied alone, 0.980 ppm",68
"O=C(NCC(F)F)c1coc(Cc2ccc(-c3noc(C(F)(F)F)n3)cc2)n1 [Compound 225, N-(2,2-difluoroethyl)-2-[[4-[5-(trifluoromethyl)-1,2,4-oxadiazol-3-yl]phenyl]methyl]-4-oxazolecarboxamide]",pest or weed control at 10 µg/mL,"[2]; test suspension 10 ppm, read-out: Test C disease control rating",100%
same,pest or weed control at 0.589 ppm,"[1]; Phakopsora pachyrhizi, applied alone, 0.589 ppm, read-out: Test E Obsd",68%
same,pest or weed control at 10 µg/mL,"[3]; test suspension 10 ppm, read-out: Test A disease control rating",100%
same,pest or weed control at 250 µg/mL,[4],99%
"CCNC(=O)c1cnn(COCc2ccc(-c3noc(C(F)(F)F)n3)cc2)c1 [Compound 508, N-ethyl-1-[[[4-[5-(trifluoromethyl)-1,2,4-oxadiazol-3-yl]phenyl]methoxy]methyl]-1H-pyrazole-4-carboxamide]",pest or weed control at 10 ppm,"[2]; 10 ppm test suspension, 100 = 100% disease control, 0 = no control",100%
same,pest or weed control at 0.855 ppm,[1]; [5],0%
same,pest or weed control at 1.716 ppm,[1]; [5],52%
same,pest or weed control at 0.855 ppm,[1]; [6],23%
same,pest or weed control at 1.716 ppm,[1]; [6],60%
same,pest or weed control at 10 ppm,[3]; 10 ppm test suspension,100%
"CO/C=C(/C(=O)OC)c1ccccc1Oc1cc(Oc2ccccc2C#N)ncn1 [azoxystrobin, reference compound]",Test E Obsd (disease control rating),"[1]; Table D-1, component (b) alone: cyproconazole 37.333, azoxystrobin 95.873, trifloxystrobin 20.511 ppm",70%
same,Test E Obsd (disease control rating),"[1]; Table D-1, component (b) alone: cyproconazole 64.883, azoxystrobin 169.226, trifloxystrobin 35.310 ppm",88%
same,Test E Obsd (disease control rating),"[1]; Table D-2, component (b) alone: cyproconazole 37.333, azoxystrobin 95.873, trifloxystrobin 20.511 ppm",70%
same,Test E Obsd (disease control rating),"[1]; Table D-2, component (b) alone: cyproconazole 64.883, azoxystrobin 169.226, trifloxystrobin 35.310 ppm",88%
"Cn1cc(C(=O)Nc2ccc(F)cc2-c2ccc(Cl)c(Cl)c2)c(C(F)F)n1 [bixafen, reference compound]",Test E Obsd (disease control rating),[1]; [7],54%
same,Test E Obsd (disease control rating),[1]; [8],55%
same,Test E Obsd (disease control rating),[1]; [9],54%
same,Test E Obsd (disease control rating),[1]; [10],55%
"N#Cc1c(Cl)c(Cl)c(Cl)c(C#N)c1Cl [chlorothalonil, reference compound]",pest or weed control at 138.129 ppm,"[1]; Phakopsora pachyrhizi, applied alone, 138.129 ppm, read-out: Test E Obsd",76%
same,pest or weed control at 222.081 ppm,"[1]; Phakopsora pachyrhizi, applied alone, 222.081 ppm, read-out: Test E Obsd",88%
"CC(Cc1ccc(C(C)(C)C)cc1)CN1CCCCC1 (centres unmarked) [fenpropidin, reference compound]",pest or weed control at 78.393 ppm,[1]; [6],0%
same,pest or weed control at 161.74 ppm,[1]; [6],52%
same,pest or weed control at 78.393 ppm,[1]; [11],0%
same,pest or weed control at 161.74 ppm,[1]; [11],52%
"CC1CC(C)(C)c2c(F)ccc(NC(=O)c3cn(C)nc3C(F)F)c21 (centres unmarked) [fluindapyr, reference compound]",Test E Obsd (disease control rating),[1]; [7],61%
same,Test E Obsd (disease control rating),[1]; [8],79%
same,Test E Obsd (disease control rating),[1]; [9],61%
same,Test E Obsd (disease control rating),[1]; [10],79%
"Cn1cc(C(=O)Nc2ccccc2-c2cc(F)c(F)c(F)c2)c(C(F)F)n1 [fluxapyroxad, reference compound]",Test E Obsd (disease control rating),[1]; [7],19%
same,Test E Obsd (disease control rating),[1]; [8],52%
same,Test E Obsd (disease control rating),[1]; [9],19%
same,Test E Obsd (disease control rating),[1]; [10],52%
"CO/C=C(/C(=O)OC)c1ccccc1COc1cccc(C(F)(F)F)n1 [picoxystrobin, reference compound]",Test E Obsd (disease control rating),"[1]; Table A-1, component (b) alone: b54.13a 1.422, b54.12a 0.303, b54.11a 0.403, picoxystrobin 20.596 ppm",73%
same,Test E Obsd (disease control rating),"[1]; Table A-1, component (b) alone: b54.13a 2.276, b54.12a 0.489, b54.11a 0.652, picoxystrobin 38.865 ppm",75%
same,Test E Obsd (disease control rating),"[1]; Table A-2, component (b) alone: b54.13a 1.422, b54.12a 0.303, b54.11a 0.403, b54.11d 0.346, picoxystrobin 20.596 ppm",73%
same,Test E Obsd (disease control rating),"[1]; Table A-2, component (b) alone: b54.13a 2.276, b54.12a 0.489, b54.11a 0.652, b54.11d 0.764, picoxystrobin 33.865 ppm",75%
same,Test E Obsd,"[1]; applied alone, 20.596 ppm",28
same,Test E Obsd,"[1]; applied alone, 33.865 ppm",43
same,Test E Obsd,"[1]; applied alone, 33.875 ppm",43
same,Test E Obsd,"[1]; picoxystrobin alone, 20.596 ppm",28
same,Test E Obsd,"[1]; picoxystrobin alone, 33.865 ppm",43
"OC(Cc1ccccc1Cl)(Cn1nc[nH]c1=S)C1(Cl)CC1 (centres unmarked) [prothioconazole, reference compound]",pest or weed control at 10.165 ppm,"[1]; Phakopsora pachyrhizi, applied alone, 10.165 ppm, read-out: Test E Obsd",34%
same,pest or weed control at 16.339 ppm,"[1]; Phakopsora pachyrhizi, applied alone, 16.339 ppm, read-out: Test E Obsd",56%
"CON(C(=O)c1cn(C)nc1C(F)F)C(C)Cc1c(Cl)cc(Cl)cc1Cl (centres unmarked) [pydiflumetofen, reference compound]",Test E Obsd (disease control rating),"[1]; Table E-1, component (b) alone: epoxiconazole 46.795, pydiflumetofen 70.950 ppm",0%
same,Test E Obsd (disease control rating),"[1]; Table E-1, component (b) alone: epoxiconazole 89.631, pydiflumetofen 135.850 ppm",73%
same,Test E Obsd (disease control rating),"[1]; Table E-2, component (b) alone: epoxiconazole 46.795, pydiflumetofen 70.950 ppm",0%
same,Test E Obsd (disease control rating),"[1]; Table E-2, component (b) alone: epoxiconazole 89.631, pydiflumetofen 135.850 ppm",73%
same,Test E Obsd (disease control rating),"[1]; Table G-1, component (b) alone: pydiflumetofen 41.364, pyraclostrobin 45.860, metominostrobin 29.673 ppm",49%
same,Test E Obsd (disease control rating),"[1]; Table G-1, component (b) alone: pydiflumetofen 128.793, pyraclostrobin 137.503, metominostrobin 86.003 ppm",36%
same,Test E Obsd (disease control rating),"[1]; Table G-2, component (b) alone: pydiflumetofen 41.364, pyraclostrobin 45.860, metominostrobin 29.673 ppm",49%
same,Test E Obsd (disease control rating),"[1]; Table G-2, component (b) alone: pydiflumetofen 128.793, pyraclostrobin 137.503, metominostrobin 86.003 ppm",36%
inpyrfluxam [reference compound],Test E Obsd,"[1]; inpyrfluxam alone, 0.448 ppm",56
same,Test E Obsd,"[1]; inpyrfluxam alone, 1.059 ppm",79
